US20190183963A1, “PROCESS FOR THE SYNCHRONIZATION OF OVULATION FOR TIMED BREEDING WITHOUT HEAT DETECTION” (priority 2003, published 2019)

Tests used:
Assay type in all cases: in vivo, swine
[1] = system: ovariectomized estrogen primed gilt model; test: Dose response study of deslorelin in SAIB, LH release determined by RIA; details: single injection of 50 mcg
Procedure: A dose response study was performed using deslorelin in SAIB in an ovariectomized estrogen primed gilt model (Barb, et al. (1999) Proceed. Int'l. Symp. Control. Rel. Bioact. Mater., 26).

postpartum sows = test: Single timed deslorelin in SAIB injection 96 hours post-weaning, single timed insemination without estrus detection
Procedure: Approximately 170 postpartum sows were randomly divided into two equal groups comprised of controls and treated. Following weaning, the controls were detected for estrus and bred following the normal standard operating procedures for the farms on which they resided. The treated sows received a 50 mcg dose of deslorelin in SAIB at 96 hours post-weaning and were bred with a single insemination 28+/−2 hours later with no regard to estrus detection. The sows were examined for pregnancy by ultrasound at 21 days and slaughtered around 28 days post breeding. The entire reproductive tract was removed and corpora lutea and embryos were counted.

mature postpartum sows = test: Intravulvar deslorelin in SAIB at estrus detection, AI breeding of mature postpartum sows; details: 50 μg intravulvar at first estrus detection
Procedure: Sows were assigned randomly in blocks of two to either control or to be injected intravulvar with 50 mcg of deslorelin in SAIB at the time of estrus detection for sows first detected in estrus in the a.m. and 12 hours later for those first detected in estrus in the p.m. Treated animals were bred AI upon detected estrus and again 24 hours later if still in estrus. Controls received a saline injection on first detected estrus behavior estrus detection and were bred according to the farm's normal procedures.

With `CCNC(=O)[C@@H]1CCCN1C(=O)[C@H](CCCN=C(N)N)NC(=O)[C@H](CC(C)C)NC(=O)[C@@H](Cc1c[nH]c2ccccc12)NC(=O)[C@H](Cc1ccc(O)cc1)NC(=O)[C@H](CO)NC(=O)[C@H](Cc1c[nH]c2ccccc12)NC(=O)[C@H](Cc1cnc[nH]1)NC(=O)[C@@H]1CCC(=O)N1` [Deslorelin, deslorelin] the “time at which LH returned to base level” value [1] was ≤ 18 h, the “LH peak relative to normal value” ([1]; normal value from Hansel et al. 1973) was “about twice normal value” and the “Sows Pregnant” value (postpartum sows; 50 mcg at 96 hours post-weaning, single insemination 28+/-2 hours later, 84 in group, ultrasound at 21 days) was 60. The “pregnancy rates (in words)” value (postpartum sows; single timed injection post-weaning, single timed insemination, no estrus detection) was “normal pregnancy rates”, the “Length of Estrus (Hrs.)” value (mature postpartum sows; AI, AI again if in estrus the next day) was 40.81 (n = 69) Hrs and the “Live piglet number per litter, greater in Deslorelin versus Saline sows” value (mature postpartum sows; difference to saline control, listed as deslorelin in SAIB) was 0.6.
